Seven molecules from ChEMBL document CHEMBL5465560, “Selectivity Literature for EUbOPEN Chemogenomic Library” (2024) can be followed below.

Assay [1] concerns the target Cyclin-dependent kinase 18 (Homo sapiens) (UniProt Q07002). In words: Selectivity interaction (KinomeScan (DiscoverX)) EUB0000595a CDK18. To be noted: at 10 µM.
Assay [2] addresses T1, Phosphatidylinositol 5-phosphate 4-kinase type-2 gamma (Homo sapiens) (UniProt Q8TBX8).
T1 sequence (whole entry): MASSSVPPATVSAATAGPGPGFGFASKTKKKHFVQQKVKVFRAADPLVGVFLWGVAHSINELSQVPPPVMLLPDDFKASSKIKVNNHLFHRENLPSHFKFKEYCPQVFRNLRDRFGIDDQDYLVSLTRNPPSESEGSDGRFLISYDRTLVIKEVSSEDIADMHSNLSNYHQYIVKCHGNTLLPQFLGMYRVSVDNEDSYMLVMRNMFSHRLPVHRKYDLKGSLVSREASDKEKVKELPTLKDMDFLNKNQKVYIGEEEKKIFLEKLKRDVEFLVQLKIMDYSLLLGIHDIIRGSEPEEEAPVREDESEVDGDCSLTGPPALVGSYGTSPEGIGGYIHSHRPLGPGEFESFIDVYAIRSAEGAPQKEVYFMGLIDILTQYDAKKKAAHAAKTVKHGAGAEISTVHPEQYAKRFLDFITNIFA
In words: Selectivity interaction (KinomeScan (DiscoverX)) EUB0000666a PIP4K2C. To be noted: at 10 µM.

Assay [3] concerns the target T2, Dual specificity tyrosine-phosphorylation-regulated kinase 2 (Homo sapiens) (UniProt Q92630).
T2 sequence (whole entry): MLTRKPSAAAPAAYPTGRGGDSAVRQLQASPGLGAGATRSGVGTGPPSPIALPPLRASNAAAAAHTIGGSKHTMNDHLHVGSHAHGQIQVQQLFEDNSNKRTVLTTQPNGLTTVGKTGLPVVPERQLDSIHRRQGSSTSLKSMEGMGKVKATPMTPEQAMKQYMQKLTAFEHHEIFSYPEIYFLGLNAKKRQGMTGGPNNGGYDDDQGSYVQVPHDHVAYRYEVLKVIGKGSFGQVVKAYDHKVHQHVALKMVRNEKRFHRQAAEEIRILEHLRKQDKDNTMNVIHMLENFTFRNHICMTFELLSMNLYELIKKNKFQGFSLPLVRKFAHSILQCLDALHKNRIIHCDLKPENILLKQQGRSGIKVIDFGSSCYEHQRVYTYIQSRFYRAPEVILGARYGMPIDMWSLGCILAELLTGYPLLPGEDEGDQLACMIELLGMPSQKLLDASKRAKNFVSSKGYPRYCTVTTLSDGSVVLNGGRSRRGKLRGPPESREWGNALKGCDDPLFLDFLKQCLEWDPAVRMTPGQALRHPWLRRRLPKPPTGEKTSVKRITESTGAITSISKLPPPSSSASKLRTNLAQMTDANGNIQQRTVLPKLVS
Nature of the assay: Selectivity interaction (Kinase panel (literature)) EUB0001199aCl DYRK2. To be noted: at 1 µM.

For assay [4], the system named is Tyrosine-protein kinase ABL1 (Homo sapiens), P00519 [T315I]. Nature of the assay: Selectivity interaction (Ambit KINOMEscan and KiNATiv profiling in Jurkat cells) EUB0000090b ABL1. The format is cell-based. To be noted: at 1 µM.
The target of assay [5] is Serine/threonine-protein kinase WNK1 (Homo sapiens) (UniProt Q9H4A3). Nature of the assay: Selectivity interaction (KinomeScan (DiscoverX)) EUB0001049a WNK1. To be noted: at 1 µM.
Serine/threonine-protein kinase WNK1 (Homo sapiens), sequence (Q9H4A3 whole entry, looked up): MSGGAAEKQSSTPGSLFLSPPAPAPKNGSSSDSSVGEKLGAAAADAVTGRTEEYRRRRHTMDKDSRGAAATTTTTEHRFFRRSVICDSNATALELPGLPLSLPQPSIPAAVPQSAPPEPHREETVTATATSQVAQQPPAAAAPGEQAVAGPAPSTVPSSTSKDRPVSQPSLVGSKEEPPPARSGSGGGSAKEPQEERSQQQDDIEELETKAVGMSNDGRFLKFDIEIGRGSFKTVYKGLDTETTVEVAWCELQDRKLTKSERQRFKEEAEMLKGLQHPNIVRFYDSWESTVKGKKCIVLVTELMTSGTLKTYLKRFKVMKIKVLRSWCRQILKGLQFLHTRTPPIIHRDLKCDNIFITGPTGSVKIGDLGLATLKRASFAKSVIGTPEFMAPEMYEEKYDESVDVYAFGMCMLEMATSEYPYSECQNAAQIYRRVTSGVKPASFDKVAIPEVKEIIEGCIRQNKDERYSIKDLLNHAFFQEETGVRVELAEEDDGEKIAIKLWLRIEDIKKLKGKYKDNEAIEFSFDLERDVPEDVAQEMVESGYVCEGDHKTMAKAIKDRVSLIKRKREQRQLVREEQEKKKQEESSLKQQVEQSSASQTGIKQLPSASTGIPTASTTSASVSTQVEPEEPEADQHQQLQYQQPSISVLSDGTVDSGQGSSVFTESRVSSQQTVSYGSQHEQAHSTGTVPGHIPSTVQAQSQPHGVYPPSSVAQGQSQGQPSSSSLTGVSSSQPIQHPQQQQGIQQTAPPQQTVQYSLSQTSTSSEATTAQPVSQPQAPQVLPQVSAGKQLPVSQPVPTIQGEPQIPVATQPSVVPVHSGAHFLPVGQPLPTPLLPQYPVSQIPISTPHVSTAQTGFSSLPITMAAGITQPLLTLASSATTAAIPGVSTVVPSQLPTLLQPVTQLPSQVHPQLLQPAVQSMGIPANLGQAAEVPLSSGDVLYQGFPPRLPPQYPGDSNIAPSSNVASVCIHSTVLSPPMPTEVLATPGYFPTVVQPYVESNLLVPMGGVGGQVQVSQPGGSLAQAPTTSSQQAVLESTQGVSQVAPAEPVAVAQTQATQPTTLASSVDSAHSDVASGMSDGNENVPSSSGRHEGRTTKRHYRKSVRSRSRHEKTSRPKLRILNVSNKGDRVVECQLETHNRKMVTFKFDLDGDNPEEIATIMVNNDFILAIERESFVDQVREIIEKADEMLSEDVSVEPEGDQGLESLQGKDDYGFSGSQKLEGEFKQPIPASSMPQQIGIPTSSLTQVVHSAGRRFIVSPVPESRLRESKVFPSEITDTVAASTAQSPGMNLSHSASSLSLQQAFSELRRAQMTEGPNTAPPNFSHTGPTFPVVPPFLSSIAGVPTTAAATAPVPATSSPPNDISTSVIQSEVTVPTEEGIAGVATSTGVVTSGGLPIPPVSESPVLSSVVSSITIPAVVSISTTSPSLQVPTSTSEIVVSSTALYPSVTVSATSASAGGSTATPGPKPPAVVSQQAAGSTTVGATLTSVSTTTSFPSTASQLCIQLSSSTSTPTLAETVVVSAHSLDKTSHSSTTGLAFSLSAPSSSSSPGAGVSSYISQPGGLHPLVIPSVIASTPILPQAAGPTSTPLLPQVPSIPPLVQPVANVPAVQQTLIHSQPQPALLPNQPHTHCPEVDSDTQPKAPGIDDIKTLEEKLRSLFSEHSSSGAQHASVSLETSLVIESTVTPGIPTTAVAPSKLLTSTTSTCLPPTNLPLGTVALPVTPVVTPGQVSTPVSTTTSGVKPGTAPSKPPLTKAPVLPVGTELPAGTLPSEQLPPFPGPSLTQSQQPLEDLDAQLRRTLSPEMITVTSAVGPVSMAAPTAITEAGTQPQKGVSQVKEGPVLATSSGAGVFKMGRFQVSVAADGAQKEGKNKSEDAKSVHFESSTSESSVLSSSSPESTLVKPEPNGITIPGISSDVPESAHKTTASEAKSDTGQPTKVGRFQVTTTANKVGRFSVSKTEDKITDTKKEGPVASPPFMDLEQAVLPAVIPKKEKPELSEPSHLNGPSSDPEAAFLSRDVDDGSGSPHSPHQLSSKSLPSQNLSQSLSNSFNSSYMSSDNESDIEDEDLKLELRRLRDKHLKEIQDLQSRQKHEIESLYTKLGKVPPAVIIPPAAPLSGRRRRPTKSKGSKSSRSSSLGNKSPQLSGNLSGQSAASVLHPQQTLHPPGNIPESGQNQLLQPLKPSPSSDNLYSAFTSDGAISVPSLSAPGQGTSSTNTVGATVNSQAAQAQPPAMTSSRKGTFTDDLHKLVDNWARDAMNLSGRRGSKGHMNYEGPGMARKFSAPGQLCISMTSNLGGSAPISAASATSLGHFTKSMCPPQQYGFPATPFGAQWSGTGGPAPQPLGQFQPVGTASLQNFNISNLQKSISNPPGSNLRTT
Assay [6] concerns the target T3, Serine/threonine-protein kinase DCLK3 (Homo sapiens) (UniProt Q9C098).
T3 sequence (whole entry): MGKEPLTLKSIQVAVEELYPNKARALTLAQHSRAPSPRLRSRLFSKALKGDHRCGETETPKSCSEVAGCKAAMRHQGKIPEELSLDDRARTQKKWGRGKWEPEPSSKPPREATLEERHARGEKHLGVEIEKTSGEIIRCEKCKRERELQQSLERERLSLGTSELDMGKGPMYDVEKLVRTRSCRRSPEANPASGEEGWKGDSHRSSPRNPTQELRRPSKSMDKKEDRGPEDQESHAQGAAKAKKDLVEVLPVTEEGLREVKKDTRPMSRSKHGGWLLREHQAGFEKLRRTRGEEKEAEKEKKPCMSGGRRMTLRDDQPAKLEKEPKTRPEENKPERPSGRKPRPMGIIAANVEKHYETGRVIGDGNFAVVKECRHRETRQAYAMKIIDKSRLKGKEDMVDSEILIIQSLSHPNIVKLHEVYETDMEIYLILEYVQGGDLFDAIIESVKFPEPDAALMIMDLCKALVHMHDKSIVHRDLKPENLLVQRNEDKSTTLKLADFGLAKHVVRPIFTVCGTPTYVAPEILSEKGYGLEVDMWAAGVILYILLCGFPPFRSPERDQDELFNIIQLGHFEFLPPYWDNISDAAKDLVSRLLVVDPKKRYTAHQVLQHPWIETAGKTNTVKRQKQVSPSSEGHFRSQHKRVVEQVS
Nature of the assay: Selectivity interaction (KinomeScan (DiscoverX)) EUB0000655a DCLK3. To be noted: at 10 µM.

Assay [7] has as its target T4, Protein arginine N-methyltransferase 7 (Homo sapiens) (UniProt Q9NVM4).
T4 sequence (whole entry): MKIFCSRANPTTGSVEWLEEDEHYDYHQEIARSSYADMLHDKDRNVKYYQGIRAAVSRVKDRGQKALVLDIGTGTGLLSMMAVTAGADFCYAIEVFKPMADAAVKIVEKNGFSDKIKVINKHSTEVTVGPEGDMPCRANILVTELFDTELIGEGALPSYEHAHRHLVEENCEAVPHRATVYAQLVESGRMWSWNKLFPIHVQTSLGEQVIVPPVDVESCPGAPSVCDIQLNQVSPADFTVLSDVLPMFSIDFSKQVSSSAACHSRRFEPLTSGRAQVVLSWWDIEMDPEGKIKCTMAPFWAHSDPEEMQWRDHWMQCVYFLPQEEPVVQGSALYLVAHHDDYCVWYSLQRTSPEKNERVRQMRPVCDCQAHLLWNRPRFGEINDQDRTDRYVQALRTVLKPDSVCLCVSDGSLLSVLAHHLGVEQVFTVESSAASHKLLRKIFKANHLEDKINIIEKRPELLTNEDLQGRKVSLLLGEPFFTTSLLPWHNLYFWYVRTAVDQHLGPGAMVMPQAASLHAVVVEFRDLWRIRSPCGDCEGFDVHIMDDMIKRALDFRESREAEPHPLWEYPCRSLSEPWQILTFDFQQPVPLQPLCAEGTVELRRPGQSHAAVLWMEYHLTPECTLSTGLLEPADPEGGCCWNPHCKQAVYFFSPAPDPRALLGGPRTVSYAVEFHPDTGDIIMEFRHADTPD
In words: Selectivity interaction (Methyltransferase screen (radiometric assays, panel of 8 PRMTs, 21 protein lysine methyltransferases, 3 DNA methyltransferases, and one RNA methyltransferase)) EUB0000272b PRMT7.

Cyclin-dependent kinase 18 (Homo sapiens), sequence (Q07002 whole entry): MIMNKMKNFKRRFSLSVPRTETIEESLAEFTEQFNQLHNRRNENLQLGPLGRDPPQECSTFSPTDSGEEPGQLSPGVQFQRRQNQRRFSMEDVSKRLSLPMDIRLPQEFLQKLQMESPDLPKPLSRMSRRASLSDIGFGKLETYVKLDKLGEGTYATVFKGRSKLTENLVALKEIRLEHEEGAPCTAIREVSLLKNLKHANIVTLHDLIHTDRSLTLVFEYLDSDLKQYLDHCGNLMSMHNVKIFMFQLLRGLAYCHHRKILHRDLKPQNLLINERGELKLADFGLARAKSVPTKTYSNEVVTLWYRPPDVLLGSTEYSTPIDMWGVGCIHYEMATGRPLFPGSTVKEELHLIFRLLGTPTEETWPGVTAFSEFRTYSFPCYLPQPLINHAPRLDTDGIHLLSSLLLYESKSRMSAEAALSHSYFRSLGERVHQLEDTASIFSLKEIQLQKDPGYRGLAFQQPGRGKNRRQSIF

Regarding `COCC(=O)NC/C=C/c1ccc2ncnc(Nc3ccc(Oc4ccc(C)nc4)c(C)c3)c2c1` [CP-724714], the % of control in assay [1] worked out at 99%.

With `O=C(NOC[C@H](O)CO)c1ccc(F)c(F)c1Nc1ccc(I)cc1F`, the % of control in assay [2] is 100%.

In assay [3], `CN1Cc2nccc(-c3cn(C)nc3-c3ccc(F)cc3)c2C1=O` registered a % of inhibition of 13%.

In the case of `CN(C)C/C=C/C(=O)Nc1ccc(C(=O)N2CCCC(Nc3ncc(Cl)c(-c4c[nH]c5ccccc45)n3)C2)cc1` (stereo not drawn), in assay [4], the % of control was 100%.

On to `COc1cc(Nc2nc(C)cc(-c3cnn4nc(OC)ccc34)n2)cc(C(F)(F)F)c1`, for which the % of control in assay [5] was 66%.

The molecule `CN(C)CCOc1ccc(-c2nc(-c3ccncc3)c(-c3ccc4c(c3)CC/C4=N\O)[nH]2)cc1` returned a % of control in assay [6] of 89%.

As for `Cc1cc(C)cc([C@H]2c3cc(C)ccc3NC(=O)CN2C(=O)c2ccc(Br)s2)c1`, the % of activity was 97.7% in assay [7] (at 1 µM) and 100% in assay [7] (at 10 µM).
